For this assay, the target named is Oxytocin receptor (Cavia porcellus). The experiment in a line: Inhibition of radioligand [3H]OT binding to oxytocin receptor (OT) in guinea pig myometrium membrane.

One may read the Kd as a measure of binding affinity in units of concentration.

Turning to `CCOc1ccc(C[C@H]2NC(=O)CC3(CCCCC3)SSC[C@@H](C(=O)N(C)CC(=O)N[C@@H](CCCN=C(N)N)C(=O)NCC(N)=O)NC(=O)[C@H](CC(N)=O)NC(=O)[C@H](CCC(N)=O)NC(=O)[C@H](Cc3ccccc3)NC2=O)cc1` [[Mca1,D-Tyr(OEt)2,Sar7]AVP], binding was put at a Kd of 21 nM.

Consider `CC[C@H](C)[C@@H]1NC(=O)[C@@H](Cc2ccc(OC)cc2)NC(=O)CC2(CCCCC2)SSC[C@@H](C(=O)N(C)CC(=O)N[C@@H](CCCN=C(N)N)C(=O)NCC(N)=O)NC(=O)[C@H](CC(N)=O)NC(=O)[C@H](CCC(N)=O)NC1=O` [[Mca1,D-Tyr(OMe)2,Sar7]AVT], for which binding was put at a Kd of 18 nM. This Kd and that of the compound before are within 1.5-fold of each other.

On to `CCOc1ccc(C[C@H]2NC(=O)CC3(CCCCC3)SSC[C@@H](C(=O)N(C)CC(=O)N[C@@H](CCCN=C(N)N)C(=O)NCC(N)=O)NC(=O)[C@H](CC(N)=O)NC(=O)[C@H](CCC(N)=O)NC(=O)[C@H]([C@@H](C)CC)NC2=O)cc1` [[Mpa1,D-Tyr(OEt)2,Sar7]AVT], for which binding was characterised by a dissociation constant (Kd) of 15 nM.

`CN(CC(=O)N[C@@H](CCCNC(=N)N)C(=O)NCC(N)=O)C(=O)[C@@H]1CSSC2(CCCCC2)CC(=O)N[C@@H](Cc2ccccc2)C(=O)N[C@@H](Cc2ccccc2)C(=O)N[C@@H](CCC(N)=O)C(=O)N[C@@H](CC(N)=O)C(=O)N1` [[Mca1,D-Phe2,Sar7]AVP] registered a Kd of 7 nM.

For the origin of these results see BindingDB's records for doi:10.1021/jm00028a008 (1994).
